Laboratory results reported in PMC8318231, “Rate-of-Kill (RoK) assays to triage large compound sets for Chagas disease drug discovery: Application to GSK Chagas Box” (PLoS Neglected Tropical Diseases, 2021).

Tests used:
[1] = system: T. cruzi intracellular amastigotes in H9c2 cells; experiment: Rate-of-Kill (RoK) high-content imaging assay, amastigotes per cell (AM/CELL) and curve descriptors; assay type: cell-based, Trypanosoma cruzi; set-up: key to ME_24h / ME_48h / ME_72h: % reduction in parasite burden (cidal response); t50pct_MCC50 / t50pct_Cmax: unit not given here; conditions: for ME_24h: 24h; for ME_48h: 48h; for ME_72h: 72h; for AM/CELL NORM: sheet figure 4 A; for t50%_Cmax / tlag_Cmax / t50pct_Cmax: at Cmax; for ME_24h (%): maximum effect at 24 h; for ME_24h (%) / ME_48h (%) / ME_72h (%): RoK assay; for ME_48h (%): maximum effect at 48 h; for ME_72h (%): maximum effect at 72 h; for ME 24h (maximum effect at 24 hours, intracellular amastigotes): maximum percentage of parasite burden reduction reached by any concentration
Experimental: For this high-content intracellular imaging assay, H9c2 cells were seeded in 225 cm^2 T- FLASK in DMEM with 10% FBS for 4 h to allow attachment. T. cruzi trypomastigotes, collected at days 5 to 8 after infection from LLC-MK2 parasite infected cultures, were allowed to swim out for 4 h at 37°C from a centrifuged pellet (1,600 x g / 10 min). Trypomastigotes were then collected and counted in a CASY Cell Counter using the 60 μm capillary. Trypomastigotes, in supplemented DMEM, were added to H9c2 cultures in a multiplicity of infection (MOI) of 8 and incubated for 18 h. Cells were washed once with PBS before incubation of the infected H9c2 monolayer with trypsin (Life-Technologies) to detach cells from the flask. Cells were counted in a CASY Cell Counter, using the 150 μm capillary, and their density set at 5 x 10^4 cells/mL in supplemented DMEM. Infected H9c2 were dispensed into 384-well plates at 50 μL per well using a Multidrop Combi dispenser. Control wells used to determine a 100% parasitic growth (full 6th column of each plate) were left untreated, whereas not infected cells were added in the control wells used as 0% parasite growth (or 100% parasite growth inhibition; full 18th column of each plate). The four plates corresponding to each RoK assay were predispensed for the same mother plate. […] Cultures were then fixed and stained with 50 μL per well of a PBS solution containing 4% formaldehyde and 2 μM DRAQ5 DNA dye (BioStatus, UK). Then plates were read in a PerkinElmer Opera Phenix using a 20x objective, 3 fields per well. DRAQ5 signal was detected using 640 nm excitation laser and a 690/50 nm emission detection filter. Automated image analysis was performed with a script developed on Acapella High Content Imaging and Analysis Software (PerkinElmer). Two outputs were provided for each sample well: (1) number of host cells nuclei to determine drug-related cytotoxicity (aka H9c2) and (2) number of amastigotes per cell as infection level measurement (aka AM/CELL). Each output is plotted as a time course for each compound at every concentration. This assay was adapted from Alonso-Padilla et al. and Peña et al..
To identify and classify the different compounds, the number of amastigotes per cell (AM/CELL) raw data obtained in rate of kill assay are normalised using the average of C1 (infected cells) at time 4 hours as 0% effect and the average of C2 (non-infected cells) for each time as 100% effect, according to the following Eq 1: %CIDALRESPONSE=100*[Avg_C14h-RawData]/[Avg_C14h-Avg_C2] (1)
• ME (Maximum Effect) is the maximum percentage of parasite burden reduction reached by any compound concentration. Compounds that decrease the initial parasite load will show a positive value of ME, whereas compounds that allow the progression of infection will render a negative ME value. […] It is calculated for the MCC50 (t50%_MCC50) and for the maximum concentration (t50%_Cmax). […] The value of this parameter is not either interpolated or extrapolated, and it refers to the first experimental time-course point at which a 50% of effect is reached or exceeded. • tlag defines the time elapsed for one particular concentration to reduce parasite burden between two consecutive points at any moment of the time course. It is calculated for the MCC50 (tlag_MCC50) and for the maximum concentration (tlag_Cmax). The value of this parameter is not either interpolated or extrapolated, and it refers to the first experimental time-course point of a positive slope in the normalised plot (i.e. %Cidal_Response). • Cmin_Tox (Minimal CytoToxic Concentration) is the lowest compound concentration that is reducing the number of host mammalian cells below 50% of initial cell density. Cytotoxic compounds may mislead a bona fide antiparasitic action.

TcCYP51 = conditions: formerly reported; cited from earlier work

Structure (SMILES)	ME_24h ([1]; figure 5)	ME_48h ([1]; figure 5)	ME_72h ([1]; figure 5)	MCC50 ([1]; RoK curve descriptor) [µM]	MCCE ([1]; RoK curve descriptor) [µM]	AM/CELL NORM ([1]; Time 4)	AM/CELL NORM ([1]; Time 24)	AM/CELL NORM ([1]; Time 48)	AM/CELL NORM ([1]; Time 72)	tlag_Cmax [1] [h]	t50pct_Cmax ([1]; figure 5)	tlag_Cmax ([1]; figure 5)	t50pct_MCC50 ([1]; at MCC50, figure 5)	tlag_MCC50 ([1]; at MCC50, figure 5)	MCCE ([1]; figure 5)	ME_24h (%) [1] [%]	ME_48h (%) [1] [%]	ME_72h (%) [1] [%]	ME 24h (maximum effect at 24 hours, intracellular amastigotes) [1] [%]	CYP51 pIC50 (TcCYP51)	also measured
Cc1cc2cncn2c(C2CCCCN2C(=O)c2cccs2)n1 (centres unmarked) [TCMDC-143500]	-103.212	-13.304	53.284	16.7	0.2	8.792	-103.212	-13.304	50.5477	24.0	72	24	72	24	0.2058	-103.2	-13.3	53.3	-103.212	7	t50%_Cmax [1]: 72.0 h; t50%_MCC50 ([1]; at MCC50): 72.0 h; tlag_MCC50 ([1]; at MCC50): 24.0 h; MCC50 ([1]; figure 5, in µM): 16.6667
O=C(CN(c1cccc(C(F)(F)F)c1)S(=O)(=O)c1ccc(Cl)cc1)NCc1ccc(F)c(F)c1 [TCMDC-143548]	-13.6646	17.5808	36.7488		0.6	27.6101	-54.8458	-14.5763	13.9259	24.0	72	24	72	72	0.6173	-13.7	17.6	36.8	-13.6646	6.8	MCC50 ([1]; figure 5): 50 µM
Cc1c(C#N)c([N+](=O)[O-])nn1Cc1cccc(Cl)c1Cl [TCMDC-143152]	56.9761	166.798	160.217	1.9	0.6	5.197	56.9761	166.798	160.217	4.0	24	4	48	4	0.6173	57.0	166.8	160.2	56.9761	< 4	t50%_Cmax [1]: 24.0 h; t50%_MCC50 ([1]; at MCC50): 48.0 h; tlag_MCC50 ([1]; at MCC50): 4.0 h; MCC50 ([1]; figure 5, in µM): 1.852
CN(C)CCOc1ccc(N2CCN(S(=O)(=O)c3ccc(Cl)cc3)CC2)cc1 [TCMDC-143622]	11.982	63.0909	72.2951	1.9	1.9	6.264	11.982	63.0909	55.0876	4.0	48	4	72	24	1.852	12.0	63.1	72.3	11.982	4.6	t50%_Cmax [1]: 48.0 h; t50%_MCC50 ([1]; at MCC50): 72.0 h; tlag_MCC50 ([1]; at MCC50): 24.0 h; MCC50 ([1]; figure 5, in µM): 1.852
